Reference: patent US20260078135A1, “POLYCYCLIC QUINAZOLINES FOR INHIBITION OF ERBB2” (Enliven Inc., priority 2022, published 2026)
pIC50: −log10 of the molar value.

Assays:
[1] = target: T1, phosphorylated EGFR (pEGFR) (Homo sapiens, UniProt P00533); assay: Detection of phosphorylated EGFR (pEGFR) by AlphaLISA in EGF-stimulated A431 cells; type: cell-based; conditions: A431 cells (10% FBS), 4 hours incubation, EGF 30 ng/mL for 10 minutes
T1 construct: performed to measure phosphorylated EGFR levels using A431 cells (10% FBS); endogenous in cells; host or cells: A431
T1 sequence (P00533 25-1210): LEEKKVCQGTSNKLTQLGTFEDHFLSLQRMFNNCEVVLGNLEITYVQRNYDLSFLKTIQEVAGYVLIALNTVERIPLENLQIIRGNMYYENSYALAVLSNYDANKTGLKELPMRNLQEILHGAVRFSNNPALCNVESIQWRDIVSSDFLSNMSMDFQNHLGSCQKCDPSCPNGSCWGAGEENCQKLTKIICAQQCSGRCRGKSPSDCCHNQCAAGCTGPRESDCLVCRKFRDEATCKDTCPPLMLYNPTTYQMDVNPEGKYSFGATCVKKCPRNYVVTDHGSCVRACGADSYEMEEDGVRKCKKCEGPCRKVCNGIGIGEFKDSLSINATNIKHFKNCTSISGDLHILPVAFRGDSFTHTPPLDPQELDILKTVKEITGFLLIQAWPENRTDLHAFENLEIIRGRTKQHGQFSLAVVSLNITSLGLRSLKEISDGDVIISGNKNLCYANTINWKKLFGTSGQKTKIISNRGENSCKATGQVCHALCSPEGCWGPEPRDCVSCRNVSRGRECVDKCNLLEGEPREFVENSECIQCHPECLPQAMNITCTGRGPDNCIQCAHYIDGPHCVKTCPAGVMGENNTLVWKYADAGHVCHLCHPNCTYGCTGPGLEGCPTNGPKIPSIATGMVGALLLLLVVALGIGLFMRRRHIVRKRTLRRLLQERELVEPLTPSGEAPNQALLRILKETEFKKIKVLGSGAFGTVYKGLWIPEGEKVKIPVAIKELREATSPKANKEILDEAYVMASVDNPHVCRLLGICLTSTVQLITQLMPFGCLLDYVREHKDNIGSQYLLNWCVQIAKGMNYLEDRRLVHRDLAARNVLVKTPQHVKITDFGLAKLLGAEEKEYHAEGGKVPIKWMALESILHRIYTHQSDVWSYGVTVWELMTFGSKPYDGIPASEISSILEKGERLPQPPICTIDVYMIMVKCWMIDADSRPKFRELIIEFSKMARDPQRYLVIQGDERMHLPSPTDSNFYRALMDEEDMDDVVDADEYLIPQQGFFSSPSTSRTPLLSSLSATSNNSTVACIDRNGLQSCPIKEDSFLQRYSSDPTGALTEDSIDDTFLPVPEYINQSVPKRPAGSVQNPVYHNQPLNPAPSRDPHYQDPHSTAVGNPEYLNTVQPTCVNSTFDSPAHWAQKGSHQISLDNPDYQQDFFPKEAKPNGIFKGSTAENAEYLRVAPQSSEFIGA
How it was run: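 pEGFR was quantified by AlphaLISA in lysates of A431 cells (10% FBS) given a 10 min pulse of EGF at 30 ng/mL after 4 h compound exposure at 37 °C. IC50 came from a four-parameter fit of % inhibition between DMSO and staurosporine controls.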

Ba/F3 ERBB2 YVMA = Ba/F3 ERBB2 YVMA (Homo sapiens, UniProt P04626, DUP772-775, cells depend on it); assay: Cell viability assay (CellTiter Glo), Ba/F3 cells engineered to express ERBB2 YVMA; type: cell-based, mouse; conditions: Ba/F3 cells expressing human ERBB2 YVMA mutant, 72 hours, read-out: Ba/F3 ERBB2 YVMA, IC50
Chain of Ba/F3 ERBB2 YVMA (P04626 with tags, fused parts or gaps DUP772-775): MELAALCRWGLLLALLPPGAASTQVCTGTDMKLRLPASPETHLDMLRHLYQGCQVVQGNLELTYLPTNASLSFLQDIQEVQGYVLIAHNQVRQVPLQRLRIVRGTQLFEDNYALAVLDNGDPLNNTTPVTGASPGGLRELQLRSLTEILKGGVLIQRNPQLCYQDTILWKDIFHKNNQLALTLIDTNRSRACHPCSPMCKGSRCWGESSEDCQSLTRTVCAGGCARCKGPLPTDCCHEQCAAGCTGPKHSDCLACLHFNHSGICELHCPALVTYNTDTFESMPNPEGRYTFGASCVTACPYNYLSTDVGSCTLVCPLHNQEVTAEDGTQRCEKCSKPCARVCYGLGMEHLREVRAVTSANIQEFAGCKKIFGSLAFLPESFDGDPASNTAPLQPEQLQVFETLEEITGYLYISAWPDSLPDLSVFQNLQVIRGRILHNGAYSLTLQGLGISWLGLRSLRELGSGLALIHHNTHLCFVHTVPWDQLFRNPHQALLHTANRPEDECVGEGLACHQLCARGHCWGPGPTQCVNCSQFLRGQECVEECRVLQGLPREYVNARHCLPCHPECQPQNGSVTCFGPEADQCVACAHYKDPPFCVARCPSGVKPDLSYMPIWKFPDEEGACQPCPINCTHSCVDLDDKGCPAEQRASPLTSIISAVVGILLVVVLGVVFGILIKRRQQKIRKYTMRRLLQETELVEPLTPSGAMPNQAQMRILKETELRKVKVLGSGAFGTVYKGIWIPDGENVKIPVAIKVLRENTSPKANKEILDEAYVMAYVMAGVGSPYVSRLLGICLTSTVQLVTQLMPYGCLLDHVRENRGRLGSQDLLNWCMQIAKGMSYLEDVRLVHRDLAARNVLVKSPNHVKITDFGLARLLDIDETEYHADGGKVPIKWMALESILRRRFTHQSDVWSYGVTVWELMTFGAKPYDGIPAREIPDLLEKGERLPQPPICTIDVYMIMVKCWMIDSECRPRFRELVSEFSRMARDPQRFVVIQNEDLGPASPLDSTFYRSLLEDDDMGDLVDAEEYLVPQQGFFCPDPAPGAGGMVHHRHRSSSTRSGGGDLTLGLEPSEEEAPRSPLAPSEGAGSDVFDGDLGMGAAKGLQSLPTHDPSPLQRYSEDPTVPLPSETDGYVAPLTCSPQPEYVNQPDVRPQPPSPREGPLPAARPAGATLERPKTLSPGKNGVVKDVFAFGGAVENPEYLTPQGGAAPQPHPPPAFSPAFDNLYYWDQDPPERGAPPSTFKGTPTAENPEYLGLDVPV
How it was run: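 Ba/F3 cells (IL-3-independent via stable retroviral human ERBB2 YVMA) seeded 3000/well and given compound from about 10 μM to 0.51 nM in three-fold steps, DMSO ≤0.1%, 72 h at 37° C. Viability by CellTiter Glo luminescence, normalized to DMSO and media-only controls. Sigmoidal nonlinear fit.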

[2] = target: T2, phosphorylated ERBB2 (pERBB2) (Homo sapiens, UniProt P04626); assay: Detection of phosphorylated ERBB2 (pERBB2) by ELISA in BT-474 cells; type: cell-based; conditions: four hour incubation
T2 construct: endogenous in cells; host or cells: BT-474
T2 sequence (P04626 23-1255): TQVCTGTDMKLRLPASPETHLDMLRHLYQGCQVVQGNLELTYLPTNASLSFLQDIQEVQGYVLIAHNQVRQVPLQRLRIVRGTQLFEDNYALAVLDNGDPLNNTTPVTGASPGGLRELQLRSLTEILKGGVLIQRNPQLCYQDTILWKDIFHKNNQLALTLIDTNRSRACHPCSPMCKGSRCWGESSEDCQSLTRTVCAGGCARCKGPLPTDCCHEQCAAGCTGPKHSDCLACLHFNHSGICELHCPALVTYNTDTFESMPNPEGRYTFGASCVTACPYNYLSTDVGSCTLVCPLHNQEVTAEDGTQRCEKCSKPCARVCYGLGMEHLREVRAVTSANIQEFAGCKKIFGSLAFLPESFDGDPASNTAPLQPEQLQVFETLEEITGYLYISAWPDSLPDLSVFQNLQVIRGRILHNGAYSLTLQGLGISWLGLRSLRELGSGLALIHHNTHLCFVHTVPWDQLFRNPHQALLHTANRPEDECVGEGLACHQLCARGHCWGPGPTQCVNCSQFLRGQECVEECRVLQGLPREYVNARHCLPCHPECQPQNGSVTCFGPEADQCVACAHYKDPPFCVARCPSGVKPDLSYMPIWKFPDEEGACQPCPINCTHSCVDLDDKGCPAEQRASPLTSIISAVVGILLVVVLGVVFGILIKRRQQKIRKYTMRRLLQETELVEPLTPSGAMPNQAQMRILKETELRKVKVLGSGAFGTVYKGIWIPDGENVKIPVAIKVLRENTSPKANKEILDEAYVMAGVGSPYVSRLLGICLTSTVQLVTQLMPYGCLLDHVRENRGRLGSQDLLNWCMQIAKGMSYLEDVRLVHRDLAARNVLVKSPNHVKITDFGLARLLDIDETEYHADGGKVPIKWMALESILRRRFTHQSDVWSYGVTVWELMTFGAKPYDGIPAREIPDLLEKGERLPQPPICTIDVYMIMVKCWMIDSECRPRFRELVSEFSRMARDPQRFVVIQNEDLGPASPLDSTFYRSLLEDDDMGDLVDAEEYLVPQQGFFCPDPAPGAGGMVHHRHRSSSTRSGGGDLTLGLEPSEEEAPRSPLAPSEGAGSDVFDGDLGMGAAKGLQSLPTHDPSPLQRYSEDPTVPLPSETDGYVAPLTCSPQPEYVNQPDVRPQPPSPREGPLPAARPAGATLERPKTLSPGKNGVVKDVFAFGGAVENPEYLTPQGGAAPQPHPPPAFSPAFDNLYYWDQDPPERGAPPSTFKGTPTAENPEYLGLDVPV
How it was run: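 BT-474 cells were treated with compounds (fourfold dilutions, 10 μM to 0.01 nM final) for 4 h at 37 °C, then lysed. pERBB2 in lysates was quantified by ELISA with an HRP anti-phosphotyrosine detection antibody and TMB read at 450 nm; % relative activity was normalized to no-cell and 0.1% DMSO controls.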

Compound	pIC50 [1]	GI50 (Ba/F3 ERBB2 YVMA)	pIC50 [2]
C=CC(=O)N1CCN2C[C@H]1COc1c2ccc2ncnc(Nc3ccc(Oc4ccn5ncnc5c4)c(C)c3)c12 [Compound 24, 1-((3S)-13-((4-([1,2,4]triazolo[1,5-a]pyridin-7-yloxy)-3-methylphenyl)amino)-2,3,5,6-tetrahydro-4H-3,7-methano[1,4,7]oxadiazonino[2,3-f]quinazolin-4-yl)prop-2-en-1-one]	< 5.00	> 0.5 µM	6.37
Cc1cc(Nc2ncnc3cc4c(nc23)N2CCN(C)C[C@H]2CO4)ccc1Oc1cc2ncn(C)c2cn1 [Compound 127, (S)-3-methyl-N-(3-methyl-4-((3-methyl-3H-imidazo[4,5-c]pyridin-6-yl)oxy)phenyl)-1,2,3,4,4a,5-hexahydropyrazino[1,2-d]pyrimido[4′,5′:5,6]pyrido[3,2-b][1,4]oxazin-11-amine]	< 5.00	> 0.5 µM	6.08
CC#CC(=O)N1CCN2c3cc4c(Nc5ccc(Oc6ccn7ncnc7c6)c(C)c5)ncnc4cc3OC[C@@H]2C1 [Compound 13, (S)-1-(11-((4-([1,2,4]triazolo[1,5-a]pyridin-7-yloxy)-3-methylphenyl)amino)-1,2,4a,5-tetrahydropyrazino[1′,2′:4,5][1,4]oxazino[3,2-g]quinazolin-3(4H)-yl)but-2-yn-1-one]	6.60	0.00624 µM	7.89
Cc1cc(Nc2ncnc3cc4c(nc23)N2CCN(C(=O)/C=C/CN(C)C)C[C@@H]2CO4)ccc1Oc1ccn2ncnc2c1 [Compound 15, (R,E)-1-(11-((4-([1,2,4]triazolo[1,5-a]pyridin-7-yloxy)-3-methylphenyl)amino)-1,2,4a,5-tetrahydropyrazino[1,2-d]pyrimido[4′,5′:5,6]pyrido[3,2-b][1,4]oxazin-3(4H)-yl)-4-(dimethylamino)but-2-en-1-one]	6.55	0.00489 µM	8.16
Cc1cc(Nc2ncnc3ccc4c(c23)OC[C@H]2CN4CCN2C(=O)/C=C/CN(C)C)ccc1Oc1ccc2c(c1)nnn2C [Compound 79, (E)-4-(dimethylamino)-1-((3R)-13-((3-methyl-4-((1-methyl-1H-benzo[d][1,2,3]triazol-5-yl)oxy)phenyl)amino)-2,3,5,6-tetrahydro-4H-3,7-methano[1,4,7]oxadiazonino[2,3-f]quinazolin-4-yl)but-2-en-1-one]	7.07	0.00604 µM	7.85
Cc1ccc(Oc2ccc(Nc3ncnc4ccc5c(c34)OC[C@H]3CN5CCN3C(=O)/C=C/CN(C)C)cc2C)cn1 [Compound 84, (E)-4-(dimethylamino)-1-((3R)-13-((3-methyl-4-((6-methylpyridin-3-yl)oxy)phenyl)amino)-2,3,5,6-tetrahydro-4H-3,7-methano[1,4,7]oxadiazonino[2,3-f]quinazolin-4-yl)but-2-en-1-one]	7.22	0.00295 µM	7.84
Cc1cc(Nc2ncnc3ccc4c(c23)OC[C@H]2CN4CCN2C)ccc1Oc1ccn2ncnc2c1 [Compound 52, (3R)—N-(4-([1,2,4]triazolo[1,5-a]pyridin-7-yloxy)-3-methylphenyl)-4-methyl-3,4,5,6-tetrahydro-2H-3,7-methano[1,4,7]oxadiazonino[2,3-f]quinazolin-13-amine]	< 5.00	> 0.5 µM	6.66
CN(C)C/C=C/C(=O)N1CCN2c3ccc4ncnc(Nc5ccc(Oc6ccn7ncnc7c6)cc5F)c4c3OC[C@H]2C1 [Compound 119, (R,E)-1-(4-((4-([1,2,4]triazolo[1,5-a]pyridin-7-yloxy)-2-fluorophenyl)amino)-6a,7,9,10-tetrahydropyrazino[1′,2′:4,5][1,4]oxazino[2,3-f]quinazolin-8(6H)-yl)-4-(dimethylamino)but-2-en-1-one]	5.71	0.0117 µM	7.54
CN(C)C/C=C/C(=O)N1CCN2C[C@@H]1COc1c2ccc2ncnc(Nc3ccc(Oc4ccn5ncnc5c4)cc3)c12 [Compound 77, (E)-1-((3R)-13-((4-([1,2,4]triazolo[1,5-a]pyridin-7-yloxy)phenyl)amino)-2,3,5,6-tetrahydro-4H-3,7-methano[1,4,7]oxadiazonino[2,3-f]quinazolin-4-yl)-4-(dimethylamino)but-2-en-1-one]	6.34	0.0144 µM	8.19
Cc1cc(Nc2ncnc3cnc4c(c23)O[C@@H]2CCNC[C@H]2N4C)ccc1Oc1ccc2c(c1)ncn2C [Compound 135, (7aR,11aR)-7-methyl-N-(3-methyl-4-((1-methyl-1H-benzo[d]imidazol-5-yl)oxy)phenyl)-7a,8,9,10,11,11a-hexahydro-7H-pyrido[4,3-b]pyrimido[5′,4′:4,5]pyrido[2,3-e][1,4]oxazin-1-amine]	< 5.00	0.0889 µM	7.25
Cc1cc(Nc2ncnc3cnc4c(c23)OC[C@@H]2CN(C(=O)/C=C/CN(C)C)CCN42)ccc1Oc1ccn2ncnc2c1 [Compound 112, (S,E)-1-(4-((4-([1,2,4]triazolo[1,5-a]pyridin-7-yloxy)-3-methylphenyl)amino)-6a,7,9,10-tetrahydropyrazino[1,2-d]pyrimido[5′,4′:4,5]pyrido[3,2-b][1,4]oxazin-8(6H)-yl)-4-(dimethylamino)but-2-en-1-one]	5.93	0.0133 µM	7.66
Cc1cc(Nc2ncnc3cc4c(nc23)N2CCNC[C@@H]2CO4)ccc1Oc1ccn2ncnc2c1 [Compound 35, (R)—N-(4-([1,2,4]triazolo[1,5-a]pyridin-7-yloxy)-3-methylphenyl)-1,2,3,4,4a,5-hexahydropyrazino[1,2-d]pyrimido[4′,5′:5,6]pyrido[3,2-b][1,4]oxazin-11-amine]	< 5.00	> 0.5 µM	6.90
Cc1cc(Nc2ncnc3cc4c(cc23)N2CCN(C(=O)/C=C/CN(C)C)C[C@H]2CO4)ccc1Oc1ccc2c(c1)ncn2C [Compound 11, (S,E)-4-(dimethylamino)-1-(11-((3-methyl-4-((1-methyl-1H-benzo[d]imidazol-5-yl)oxy)phenyl)amino)-1,2,4a,5-tetrahydropyrazino[1′,2′:4,5][1,4]oxazino[3,2-g]quinazolin-3(4H)-yl)but-2-en-1-one]	5.93	0.0653 µM	7.13
Cc1cc(Nc2ncnc3ccc4c(c23)OC[C@H]2CN4CCN2C(=O)/C=C/CN(C)C)ccc1Oc1ccc2c(c1)ncn2C [Compound 31, (E)-4-(dimethylamino)-1-((3R)-13-((3-methyl-4-((1-methyl-1H-benzo[d]imidazol-5-yl)oxy)phenyl)amino)-2,3,5,6-tetrahydro-4H-3,7-methano[1,4,7]oxadiazonino[2,3-f]quinazolin-4-yl)but-2-en-1-one]	6.61	0.0126 µM	7.70
CN(C)C/C=C/C(=O)N1CCN2c3ccc4ncnc(Nc5ccc(Oc6ccn7ncnc7c6)cc5F)c4c3OC[C@@H]2C1 [Compound 95, (S,E)-1-(4-((4-([1,2,4]triazolo[1,5-a]pyridin-7-yloxy)-2-fluorophenyl)amino)-6a,7,9,10-tetrahydropyrazino[1′,2′:4,5][1,4]oxazino[2,3-f]quinazolin-8(6H)-yl)-4-(dimethylamino)but-2-en-1-one]	5.56	0.0196 µM	7.49
Cc1cc(Nc2ncnc3cc4c(cc23)N2CCOC[C@H]2CO4)ccc1Oc1ccc2c(c1)ncn2C [Compound 121, (S)—N-(3-methyl-4-((1-methyl-1H-benzo[d]imidazol-5-yl)oxy)phenyl)-1,2,4a,5-tetrahydro-4H-[1,4]oxazino[4′,3′:4,5][1,4]oxazino[3,2-g]quinazolin-11-amine]	< 5.00	0.071 µM	7.57
Cc1cc(Nc2ncnc3ccc4c(c23)OC[C@H]2COCCN42)ccc1Oc1ccn2ncnc2c1 [Compound 85, (R)—N-(4-([1,2,4]triazolo[1,5-a]pyridin-7-yloxy)-3-methylphenyl)-6a,7,9,10-tetrahydro-6H-[1,4]oxazino[4′,3′:4,5][1,4]oxazino[2,3-f]quinazolin-4-amine]	< 5.00	0.181 µM	7.76
CN(C)C/C=C/C(=O)N1CCN2c3ccc4ncnc(Nc5ccc(Oc6ccn7ncnc7c6)c(F)c5)c4c3OC[C@@H]2C1 [Compound 94, (S,E)-1-(4-((4-([1,2,4]triazolo[1,5-a]pyridin-7-yloxy)-3-fluorophenyl)amino)-6a,7,9,10-tetrahydropyrazino[1′,2′:4,5][1,4]oxazino[2,3-f]quinazolin-8(6H)-yl)-4-(dimethylamino)but-2-en-1-one]	5.67	0.0199 µM	7.71
CN(C)C/C=C/C(=O)N1CCN2c3ncc4ncnc(Nc5cc(F)c(Oc6ccn7ncnc7c6)cc5F)c4c3OC[C@H]2C1 [Compound 115, (R,E)-1-(4-((4-([1,2,4]triazolo[1,5-a]pyridin-7-yloxy)-2,5-difluorophenyl)amino)-6a,7,9,10-tetrahydropyrazino[1,2-d]pyrimido[5′,4′:4,5]pyrido[3,2-b][1,4]oxazin-8(6H)-yl)-4-(dimethylamino)but-2-en-1-one]	5.32	0.00722 µM	7.52
